Test [1] concerns the target Human immunodeficiency virus type 1 protease (Human immunodeficiency virus 1, UniProt Q72874). Nature of the test: Inhibitory activity against HIV-1 protease.
In test [2] the target is Human immunodeficiency virus type 1 protease (Human immunodeficiency virus 1) (UniProt Q72874). The test is described as follows: Compound was tested for inhibition of HIV-1 protease (taken from ZhangPoorman plot).
Test [3] shares this target. Nature of the test: Compound was tested for inhibition of HIV-1 protease by a dissociative mechanism.

Consider `COc1ccc(NC(=O)C(=O)O)cc1C(=O)NNC(=O)OCC1c2ccccc2-c2ccccc21`, for which, in test [1], half-maximal inhibition (IC50) was put at 30 µM. In addition, the Kid in test [2] was 9.1 µM.

With `CC[C@@H](C)[C@H](NC(=O)[C@@H](NC(=O)[C@H](CC(C)C)NC(=O)[C@@H](N)Cc1c[nH]c2ccccc12)[C@H](C)O)C(=O)NCCc1cccc2c1oc1c(CCC(=O)N[C@H](C(=O)N[C@@H](Cc3ccc(O)cc3)C(=O)N[C@@H](CC(N)=O)C(=O)N[C@@H](Cc3ccccc3)C(=O)O)[C@H](C)O)cccc12`, half-maximal inhibition in test [1] (IC50) was put at 12 µM. Besides, the Kid in test [3] came out at 5.4 µM.

The record behind these values is ChEMBL document CHEMBL1133955, “Design and synthesis of new inhibitors of HIV-1 protease dimerization with conformationally constrained templates” (Bioorg Med Chem Lett, 2001).
